Experimental data taken from patent US6914045B2, “Glycopeptide antibiotics” (Wyeth Holdings Corporation, priority 2001, dated 2005).
Values after ≈ are worked out from the molar mass of the structure shown.

Columns and labels:
Assay in all cases: in vitro antibacterial evaluation, MIC by broth dilution
Type in all cases: cell-based
Conditions in all cases: broth dilution, 18 hours at 35° C.
[1] = test system: Escherichia coli
Procedure: (§1) The minimum inhibitory concentration (MIC), the lowest concentration of the antibiotic which inhibits growth of the test organism, is determined by the broth dilution method using Muller-Hinton II […] (Baltimore Biological Laboratories) following the recommendations of the National Committee for Clinical Laboratory Standards [Methods for dilution antimicrobial susceptibility tests for bacteria that grow aerobically, approved standard M7-A2, National Committee for Clinical Laboratory Standards, Villanova, Pa.].
(§2) An inoculum level of 5×10^5 CFU/mL, and a range of antibiotic concentrations (64-0.06 μg/mL) is used. […] The test organisms include a spectrum of Gram-positive bacteria comprised of Staphylococcus sp., Streptococcus sp. and Enterococcus sp. These organisms include recent clinical isolates that are resistant to methicillin, penicillin and/or vancomycin.

[2] = test system: Streptococcus sp.
Procedure: (§3) Methods for in vitro Antibacterial Evaluation (Table 1)
as §1, §2

[3] = test system: Enterococcus sp.
Procedure: as §3, §1, §2

[4] = test system: Staphylococcus sp.
Procedure: as §3, §1, §2

MIC Escherichia coli (ATCC 25922) ([1]; strain ATCC 25922): 128 µg/mL (≈ 109 µM)
MIC Escherichia coli (GC 4559) ([1]; strain GC 4559): 128 µg/mL (≈ 109 µM)
MIC Escherichia coli (GC 4560) ([1]; strain GC 4560): 16 µg/mL (≈ 13.6 µM)
MIC Streptococcus pneumoniae (ATCC 6301) ([2]; strain ATCC 6301): 8 µg/mL (≈ 6.81 µM)
MIC Streptococcus pneumoniae (GC 1894) ([2]; strain GC 1894): 8 µg/mL (≈ 6.81 µM)
MIC Streptococcus pyogenes (GC 4563) ([2]; strain GC 4563): 4 µg/mL (≈ 3.41 µM)
MIC Streptococcus agalactiae (GC 4564) ([2]; strain GC 4564): 16 µg/mL (≈ 13.6 µM)
MIC Streptococcus pneumoniae (GC 4565) ([2]; strain GC 4565): 16 µg/mL (≈ 13.6 µM)
MIC Enterococcus faecalis (ATCC 29212) ([3]; strain ATCC 29212): 16 µg/mL (≈ 13.6 µM)
MIC Enterococcus faecalis (GC 2242) ([3]; strain GC 2242): 16 µg/mL (≈ 13.6 µM)
MIC Enterococcus faecium (GC 2243) ([3]; strain GC 2243): 8 µg/mL (≈ 6.81 µM)
MIC Enterococcus faecalis (GC 2691) ([3]; strain GC 2691): 16 µg/mL (≈ 13.6 µM)
MIC Enterococcus faecalis (GC 3059) ([3]; strain GC 3059): 16 µg/mL (≈ 13.6 µM)
MIC Enterococcus faecalis (GC 4552) ([3]; strain GC 4552): 16 µg/mL (≈ 13.6 µM)
MIC Enterococcus faecalis (GC 4553) ([3]; strain GC 4553): 8 µg/mL (≈ 6.81 µM)
MIC Enterococcus faecalis (GC 4554) ([3]; strain GC 4554): 32 µg/mL (≈ 27.3 µM)
MIC Enterococcus faecium (GC 4556) ([3]; strain GC 4556): 32 µg/mL (≈ 27.3 µM)
MIC Enterococcus faecium (GC 4557) ([3]; strain GC 4557): 8 µg/mL (≈ 6.81 µM)
MIC Enterococcus avium (GC 4558) ([3]; strain GC 4558): 8 µg/mL (≈ 6.81 µM)
MIC Enterococcus faecalis (GC 6189) ([3]; strain GC 6189): 16 µg/mL (≈ 13.6 µM)
MIC Staphylococcus aureus (ATCC 29213) ([4]; strain ATCC 29213): 16 µg/mL (≈ 13.6 µM)
MIC Staphylococcus aureus (GC 1131) ([4]; strain GC 1131): 16 µg/mL (≈ 13.6 µM)
MIC Staphylococcus aureus (GC 3051) ([4]; strain GC 3051): 16 µg/mL (≈ 13.6 µM)
MIC Staphylococcus aureus (GC 3053) ([4]; strain GC 3053): 8 µg/mL (≈ 6.81 µM)
MIC Staphylococcus aureus (GC 4541) ([4]; strain GC 4541): 16 µg/mL (≈ 13.6 µM)
MIC Staphylococcus aureus (GC 4542) ([4]; strain GC 4542): 16 µg/mL (≈ 13.6 µM)
MIC Staphylococcus aureus-SMITH (GC 4543) ([4]; strain GC 4543): 16 µg/mL (≈ 13.6 µM)
MIC Staphylococcus aureus (GC 4544) ([4]; strain GC 4544): 16 µg/mL (≈ 13.6 µM)
MIC Staphylococcus aureus (GC 4545) ([4]; strain GC 4545): 16 µg/mL (≈ 13.6 µM)
MIC Coagulase Negative Staphylococcus (GC 4547) ([4]; strain GC 4547): 8 µg/mL (≈ 6.81 µM)
MIC Coagulase Negative Staphylococcus (GC 4548) ([4]; strain GC 4548): 8 µg/mL (≈ 6.81 µM)
MIC Coagulase Negative Staphylococcus (GC 4549) ([4]; strain GC 4549): 4 µg/mL (≈ 3.41 µM)
MIC Coagulase Negative Staphylococcus (GC 4551) ([4]; strain GC 4551): 8 µg/mL (≈ 6.81 µM)
MIC Coagulase Negative Staphylococcus (GC 6257) ([4]; strain GC 6257): 4 µg/mL (≈ 3.41 µM)
Structure (SMILES): CC(c1ccccc1)C1NC(=O)CNC(=O)C(CO)NC(=O)C(C(O)C2CNC(=N)N2C2OC(CO)C(O)C(O)C2O)NC(=O)C(C(O)C2CNC(=N)N2)NC(=O)C(Cc2ccc3oc(C=C(c4ccccc4)c4ccccc4)nc3c2)NC1=O (stereo not drawn) [Example 39, Cyclo[3-[2-(2,2-diphenylethenyl)-1,3-benzoxazol-5-yl]alanyl-3-(2-iminoimidazolidin-4-yl)seryl-3-(3-hexopyranosyl-2-iminoimidazolidin-4-yl)serylserylglycyl-β-methylphenylalanyl]]
MIC Staphylococcus haemolyticus (GC 4546) ([4]; strain GC 4546): 8 µg/mL (≈ 6.81 µM)
